Assays:
[1] = test system: glucose-6-phosphatase translocase mRNA; assay: Target mRNA reduction in liver of lean ob/ob+/- mice; type: in vivo, mouse; conditions: 50 mg/kg s.c. twice weekly, five doses
Procedure: (§1) Ob/ob mice have a mutation in the leptin gene which results in obesity and hyperglycemia. […] Seven-week old ob/ob+/−male mice were dosed twice weekly with 50 mg/kg of antisense oligonucleotide, given subcutaneously. A total of five doses were given. glucose-6-phosphatase translocase antisense oligonucleotides used were ISIS 148985 (SEQ ID NO: 118) and ISIS 149008 (SEQ ID NO: 141). Each treatment group was comprised of 4 animals. Animals were sacrificed 48 hours after the last dose of oligonucleotide was administered, and liver triglycerides, liver glycogen content, and target reduction in liver were measured.
Glucose-6-phosphatase translocase mRNA levels in liver were measured at the end of study using RiboGreen™ RNA quantification reagent (Molecular Probes, Inc. Eugene, Oreg.) as taught in previous examples above.
Glucose-6-phosphatase translocase mRNA levels were reduced by approximately 51% in lean mice treated with ISIS 148985, and by approximately 88% in lean mice treated with ISIS 149008, when compared to saline treatment. Thus the antisense compounds ISIS 149008 and ISIS 148985 were effective in reducing liver glucose-6-phosphatase translocase mRNA levels in vivo.

[2] = test system: mouse glucose-6-phosphatase translocase mRNA; assay: Antisense inhibition of mouse glucose-6-phosphatase translocase mRNA in primary mouse hepatocytes, 50 nM (Table 5); type: cell-based; conditions: 50 nM oligonucleotide, mRNA by real-time PCR, normalized with RIBOGREEN
[3] = Liver triglycerides and liver glycogen in lean ob/ob+/- mice; type: in vivo, mouse; conditions: 50 mg/kg s.c. twice weekly, five doses; for Liver glycogen levels: saline approximately 37
Procedure: as §1
Liver triglyceride levels are used to assess hepatic steatosis, or accumulation (poor clearing) of lipids in the liver. Tissue triglyceride levels were measured using a Triglyceride GPO assay from Roche Diagnostics (Indianapolis, Ind.). Liver triglycerides were about 19 mg/dL for saline treated lean mice and were about 14 mg/dL for ISIS 149008-treated lean mice.
Tissue glycogen was measured using the Glucose Trinder Reagent (Sigma-Aldrich, St. Louis, Mo.). Glycogen levels of lean mice treated with saline alone were approximately 37 mg/g of tissue. Mice treated with ISIS 149008 or 148985, the antisense inhibitors of glucose-6-phosphatase translocase, had glycogen levels of approximately 39 mg/g and 36 mg/g, respectively.

ob/ob mice = assay: Glycerol tolerance test in ob/ob mice; type: in vivo, mouse; conditions: 25 mg/kg twice weekly, after 6th dose, glycerol 1 g/kg oral
Procedure: The mice described in Example 7 were evaluated for performance on glycerol tolerance tests after the 6th dose of saline or antisense oligonucleotides. This is a functional measure of glucose-6-phosphatase translocase inhibition; i.e., whether the conversion of […] to glucose is impaired by antisense inhibitors of glucose-6-phosphatase translocase.
Glycerol tolerance tests were performed after treatment with saline, ISIS 148985 (SEQ ID NO: 118), or ISIS 149008 (SEQ ID NO: 141). Glycerol was administered by oral gavage via an 18 g gavage needle at a dose of 1 g/kg. Plasma glucose levels were measured for 30, 60, 90 and 120 minutes post-challenge using an Ascencia Glucometer Elite XL (Bayer, Tarrytown, N.Y.) and plotted over time. Area under the curve (AUC) for each treatment graph was calculated.

[4] = rat, in vivo
Procedure: (§2) Male Zucker fa/fa rats, about 17 to 18 weeks of age, purchased from Charles River Laboratories (Wilmington, Mass.), are maintained on a normal rodent diet. Animals are placed into treatment groups of 8 animals each. […] Another treatment group received the food-administered daily doses of 3 mg/kg of rosiglitazone alone. Saline-injected animals served as a control treatment group.
Also monitored throughout the study was body composition. Baseline body composition was measured by MRI prior to the start of treatment (BL). Body composition was also measured during week 3 (Wk 3) and during week 5 (Wk 5) of treatment.

[5] = rat, in vivo; remark: listed apart in the source
Procedure: as §2
The liver transaminases, ALT and AST, were measured throughout the study.

Sequence	Glucose-6-phosphatase translocase mRNA levels in liver, reduction compared to saline [1]	% Inhib [2]	% Inhib ([2]; listed as 148985) [%]	Liver glycogen levels [3]	decrease in AUC of plasma glucose compared to saline, glycerol tolerance test (ob/ob mice)	body fat percentage (in words) [4]	liver transaminases ALT and AST (in words) [5]	Liver Triglycerides ([3]; saline about 19)
GCTCCATAGCGAGGACTCGA (chemistry not given here) [ISIS 148985]	approximately 51%	approximately 84%	84	~36 mg/g	did not show significant decrease in AUC			
GTGCTTGGCGATGGTACTGA (chemistry not given here) [ISIS 366228]						did not cause marked increases in body fat percentage	reductions in levels of these indicators of liver function	
TATACAAGTCGGTTTGCCCT (chemistry not given here) [ISIS 149008]	approximately 88%	~65%		approximately 39 mg/g	approximately 30%			about 14 mg/dL
